Read-outs that look alike come from different tables or passages of the source.
Experiments:
Pf3D7 = test: Parasite killing rate (wash-out) assay; format: cell-based, P. falciparum; settings: washout after 24 or 48 h of treatment, 10× EC50, parasites traversed a trophozoite stage
Experimental: Assays were performed as previously described ([7]). […] Parasite cultures incubated for 48 h were fed at 24 h with fresh media containing compound. […] Once thawed, cultures were analyzed using SYBR Green I as described above. Parasite viability was determined as a percentage of vehicle-treated controls, and experiments were performed in four biological replicates.

[1] = Metabolic stability in liver microsomes; format: in vitro ADME; settings: read-out: in vitro microsomal CLint
Experimental: Samples were collected over the incubation period, quenched by the addition of an equal volume of acetonitrile, and analyzed using a Waters Acquity UPLC and Xevo G2 QTOF mass spectrometer with positive electrospray ionization under the MS^E mode. The natural log of the substrate concentration was plotted against the incubation time to determine the first-order degradation rate constant which was normalized to the microsomal protein concentration to give the in vitro intrinsic clearance (in vitro CLint, µL/min/mg microsomal protein). […] Cell viability was determined by Trypan Blue exclusion. At various times over the incubation period, samples were quenched with the addition of an equal volume of acetonitrile and analyzed as described above. Metabolite identification was conducted by accurate mass and tandem mass spectrometry (MS/MS) analysis.

[2] = Plasma protein binding by ultracentrifugation; format: in vitro ADME; settings: plasma (10% plasma diluted with PBS), pH 7.4
Experimental: Human plasma was obtained from the Volunteer Blood Donor Registry (Walter & Eliza Hall Institute, Melbourne, Australia), rat plasma was from male Sprague-Dawley rats (Animal Resource Centre, Perth, Western Australia) and mouse plasma was procured as described above. RPMI-1640 media supplemented with 25 mM HEPES, 2 g/L sodium bicarbonate, and 100 mg/L neomycin were additionally supplemented with 5 […] on the day prior to binding assessment. […] Additional aliquots of spiked matrix were maintained at 37°C for 4.2 h but not centrifuged to serve as controls for stability assessment and to obtain a measure of the total concentration in each matrix. Following centrifugation, aliquots of the protein-free supernatant and the non-centrifuged matrix controls were “matrix matched” by addition of an equal volume of the opposite medium (i.e., either blank buffer or blank matrix) and assayed as described above with comparison to calibration standards prepared in 50% matrix/50% PBS.

[3] = system: human M1 aminopeptidase insulin-regulated aminopeptidase (IRAP); set-up: method as in PMID 30537832; settings: tested up to 200 µM; cited from earlier work

CC(C)(C)CC(=O)NC(C(=O)NO)c1ccc(-c2cc(F)c(F)c(F)c2)cc1 (stereo not shown) [MMV1557817, N-(2-(hydroxyamino)−2-oxo-1-(3′,4′,5′-trifluoro-[1,1′-biphenyl]-4-yl)ethyl)-3,3-dimethylbutanamide]
parasite survival (Pf3D7): less than 10%
microsomal CLint at 1 µM ([1]; human liver microsomes): 11 µL/min/mg
microsomal CLint at 1 µM ([1]; mouse liver microsomes): 23 µL/min/mg
microsomal CLint at 1 µM ([1]; rat liver microsomes): 29 µL/min/mg
fraction unbound at 4.2 h ([2]; male, Sprague-Dawley, rat plasma): 0.022
fraction unbound at 4.2 h ([2]; mouse plasma): 0.023
off-target inhibition [3]: limited off-target inhibitory affects
